# Assay results published in a melting point compilation (Tetko et al.; mined from patent text by program, amines drawn as free bases though some values may be those of a salt).
row,melting point [°C],SMILES
1,91 to 92,CCC(C(C)=CC(CNC(=O)c1cccnc1F)=NO)[N+](=O)[O-] (stereo not drawn)
2,241 to 242,CCCOc1ccc2oc(-c3ccc4c(c3)C=C(C(=O)Nc3ccc(CN(C)C5CCOCC5)cc3)CCS4(=O)=O)cc2c1
3,115 to 120,COc1ccc(C(=O)Nc2ccc3ccc(Oc4ccccc4)nc3n2)cn1
4,> 250,CCC1(O)CC(=O)OCc2c1cc1n(c2=O)Cc2c-1nc1ccccc1c2CC[Si](C)(C)C (stereo not drawn)
5,150 to 153,COc1cccc2c1Cc1ccccc1C2(CC(=O)O)CC(=O)O
6,236 to 238,CCCC1=C(C(=O)OCC)C(c2cccc(C(F)(F)F)c2Cl)c2c[nH]nc2N1 (stereo not drawn)
7,186 to 188,CC(C)(C)C(NC(=O)Cc1ccc(Cl)cc1)NC(Cc1cccc2ncccc12)=NC#N (stereo not drawn)
8,180 to 182,CCc1ccc2c(O)c(CO)cnc2c1
9,107 to 108,Clc1ccc(CC(Cn2cncn2)Cn2cncn2)cc1
10,66 to 67,CCc1cc(OCc2ccccc2)cc(C(=O)OC)c1C(=O)OC
11,218 to 219,CC(C)Cn1c(CNC(=O)OC(C)(C)C)c(-c2ccc(F)cc2)c2cc(OCC(N)=O)ccc2c1=O
12,> 300,CN1CC(Oc2ccc(Nc3cc(-c4cccc(-n5ncc6cc(C(C)(C)C)cc(F)c6c5=O)c4CO)cn(C)c3=O)nc2)C1
13,> 250,O=C1CCCC2=C1C(c1ccc(F)cc1O)C1=C(CCS1)N2 (stereo not drawn)
14,212 to 214,O=C(O)c1cc(C(=O)C2CCCCC2)cc2c1OC(c1ccccc1)(c1ccccc1)O2
15,193,CCc1cc(=O)c2nc(OCC[Si](C)(C)C)ccc2[nH]1
16,145 to 147,NC(=O)CC[C@H](NC(=O)CCc1ccc(OCc2ccccc2)cc1OCc1ccccc1)C(=O)N1CCN(Cc2ccccc2)CC1
17,228 to 230,O=C(Nc1ccccn1)c1nc(-c2ccccc2)c2ccccc2c1O
18,175 to 176,O=c1[nH]nnc2sccc12
19,200 to 203,O=C1N(N2CCOCC2)c2ccccc2C1(Cc1ccncc1)Cc1ccncc1
20,332 to 336,Cc1c(-c2cc(C#N)ccc2F)sc2nc(N)[nH]c(=O)c12
21,268 to 270,Cn1cc(-c2cc3cccnc3[nH]2)c2cc(C(=O)NCCN3CCOCC3)ccc21
22,76 to 78,CCC1(CC)c2ccc(C)cc2C(CC)(CC)N1OC(C)=O

row,melting point [°C],SMILES
1,195 to 210,CN1CCN(C(=O)c2ccc3n2Cc2ccc(C(=O)O)cc2N(C(=O)c2ccc(C4CCCCC4)cc2)C3)CC1
2,136 to 138,CN1C(=O)CCC2(CCC(=O)c3ccccc32)C1=O (stereo not drawn)
3,154 to 156,CCOC(=O)C(=CNC1CCCCC1)C(=O)c1ccc(I)cc1Cl
4,84,COc1ccc(C2=NC(C)(C)C(c3cccs3)C2)cc1 (stereo not drawn)
5,95 to 98,CCOP(=O)(C=Cc1ccc([N+](=O)[O-])cc1)OCC
6,125 to 127,CON(C)C(=O)c1cc(O)cc2cc(-c3ccc(O)cc3)oc12
7,122 to 123,CC(C)(C)c1cc(SC2CCN(S(=O)(=O)c3ncc(CO)[nH]3)CC2)cc(C(C)(C)C)c1O
8,189 to 191,Cc1c(CN2CCN(c3cccc(Cl)c3)C2=O)ncn1C(c1ccccc1)(c1ccccc1)c1ccccc1
9,163 to 164,CC(C)C(N)=C(C#N)C#N
10,48 to 51,C1=Cc2ccccc2OC1
11,214 to 217,C=C(C(=O)c1ccc(C=CC(=O)O)cc1)c1c(F)c(F)c(F)c(F)c1F
12,173,CO/C=C(/C(=O)OC)c1c(O)c(C)nn1C
13,163 to 164,O=C1Nc2ccc(S(=O)(=O)N3CCC[C@H]3CN3CCOCC3)cc2C1=O
14,222,Nc1ncc(-c2ccncn2)c(-c2ccco2)n1
15,140,"CC(=O)SCC(Cc1ccccc1)NC(=O)N1CCN(c2ccc(Cl)cc2)CC1 (single isomer, unassigned; (+))"
16,180 to 184,CCCn1c(=O)c2c(N)n(C(=O)OC)nc2c2ccccc21
17,235 to 237,CCOC(=O)c1c2n(c3c(F)c(N4CCC(NC(=O)C(F)(F)F)C4)c(F)cc3c1=O)C(C)S2 (stereo not drawn)
18,185 to 188,COC(=O)C1=C(C)NC(C2CCCCC2)=C(S(=O)(=O)N(C)C)C1c1cccc([N+](=O)[O-])c1 (stereo not drawn)
19,60 to 61,CC(=O)CC(C)c1ccc(-c2ccccc2F)cc1 (stereo not drawn)
20,120 to 121,CC[C@@]1(C)OC(=O)C(c2ccc(F)cc2)=C1c1ccc(S(C)(=O)=O)cc1
21,149 to 152,COCc1c(C=C(Br)Br)ncc2c1c1c(OCc3ccccc3)cccc1n2S(=O)(=O)c1ccc(C)cc1
22,84 to 85,C=Cc1c(CC)nc(CC)c(CO)c1-c1ccccc1

row,melting point [°C],SMILES
1,188 to 191,Cc1c(-c2ccc(Cl)c(Cl)c2)n(-c2ccccc2)c(-c2ccccc2)cc1=O
2,75 to 81,COc1ccc(CN(CCN(C)C)c2cccc(/C=C/C(=O)O)n2)cc1
3,156 to 158,CN(C)c1ccccc1CSc1nccc(=O)[nH]1
4,77 to 93,COc1cc2c(cc1Nc1ncc(Cl)c(Nc3ccccc3OCC#N)n1)CCN(CC(=O)N(C)C)CC2
5,195 to 197,Cn1cc(C(=O)NCc2ccc(Cl)cc2)c(=O)c2cc(CN3CCOCC3)cc(C#Cc3cccnc3)c21
6,109 to 110,O=C1NCc2cc(C3CC3)sc21
7,162 to 163,Cc1oc(-c2ccccc2)nc1COc1ccc(COc2ccc(Br)cc2CC(=O)O)cc1
8,90.5 to 91.5,Nc1nc2ccccc2c2c1ncn2CCCCNC(=O)c1ccc(Oc2ccccc2)cc1
9,84 to 85,O=C(NCC12CC3CC(CC(C3)C1)C2)c1cc(CCCNCCCO)ncc1Cl
10,32 to 34,CCOC=Nc1c(C(=O)OCC)cnn1C
11,218 to 219,Cc1ccc(C(=O)Nc2c[nH]nc2C(=O)NCC(F)(F)F)cn1
12,231 to 232,CC1(C)C(=O)Nc2ccc(-c3cccc(C#N)c3F)cc21
13,161 to 162,CCN(CC)CCC1CCCCN1CCNC(=O)N1c2ccccc2C(=O)Nc2cccnc21 (stereo not drawn)
14,187 to 188,NC(=O)c1c(F)ccc(OCC=CC(=O)O)c1F
15,170 to 172,CN1CCN(C2=Nc3ccccc3-n3ccc4cc(Cl)cc2c43)CC1
16,99 to 101,"Cc1cccc(C)c1N1CC(C)N(c2c(C)cccc2C)C1=N (single isomer, unassigned; (+))"
17,182 to 183,Cc1c(-c2ccccc2Cl)n(-c2ccccc2)c(-c2ccccc2F)cc1=O
18,72 to 78,S=C(NCCc1c[nH]cn1)NCCN(Cc1ccc(Cl)c(Cl)c1)c1ccc(Br)cn1
19,> 300,O=c1[nH]c2cc(Br)cc3c2n(c1=O)CC3
20,120 to 123,CC(C)Nc1ncc2c(n1)N(C)C(=O)C2
21,> 250,CC(C)c1n[nH]c2c(Cl)nc(Cl)nc12
22,195 to 196,CCCCOc1c(CNC(=O)OC(C)(C)C)n(CC(C)C)c(=O)c2ccc(-c3nc(C(N)=O)cs3)cc12

row,melting point [°C],SMILES
1,265,C#CCOc1cc(OCC=C)ccc1-c1nc2cnncc2[nH]1
2,194 to 195,CC(=O)N(C)c1cccc(S(=O)(=O)c2ccc([N+](=O)[O-])cc2)c1
3,130 to 131,Cc1oc(-c2ccccc2)nc1COc1ccc(COc2nn(Cc3ccccc3)cc2CCC(=O)O)cn1
4,80 to 81,CN(C)C(=O)Cc1cccc(NC(=O)N(C)C)c1
5,181 to 183,COc1ccc(-n2cnc3c(-c4ccc(C(F)(F)F)cc4F)ncnc32)cc1
6,121 to 122,CS(=O)(=O)OCCc1ccc(OCc2coc(/C=C/c3ccccc3)n2)cc1
7,66 to 67,CC(CC(=O)O)c1ccc(-c2ccccc2)c(Cl)c1 (stereo not drawn)
8,156,CCN1CC(OCC2CC2)(C(F)(F)F)c2cc(F)ccc2NC1=O (stereo not drawn)
9,110 to 112,CC(=O)NC1CN(CCN2CCOCC2)S(=O)(=O)c2sc(S(N)(=O)=O)cc21 (stereo not drawn)
10,119 to 120,CCOC(=O)COc1ccc(NC(=O)OC(C)(C)C)cc1Cl
11,175 to 178,CC(C)CCC(=O)NC1(C(=O)NC2N=C(C(C)(C)C)c3ccccc3N(C)C2=O)CCCC1 (stereo not drawn)
12,102,Cc1cc(OCc2coc(C=Cc3ccc(SC(F)(F)F)cc3)n2)ccc1COCCn1ccnn1
13,82 to 83,CC(=O)N(C)Cc1ccc(OCc2ccc(F)cc2)cc1
14,60 to 61,COC(=O)c1cc(-c2ccc(C(F)(F)F)cc2)oc1COC(C)=O
15,277 to 278,Cn1ncc2c1-c1c(SC(C)(C)C)sc(C(=O)O)c1CC2
16,169 to 174,CC(Cn1ncc2ccc(O)cc21)O[Si](C)(C)C(C)(C)C (stereo not drawn)
17,178 to 179,CCOC(=O)/C=C(C)/C=C/C=C(\C)C1=Cc2cc(C34CC5CC(CC(C5)C3)C4)ccc2OC1
18,229 to 231,FC(F)c1nc2ccccc2n1-c1nc(Oc2cccnc2)nc(N2CCOCC2)n1
19,214 to 215,O=C(Nc1cc(Cl)ccc1Oc1ccc(Cl)cc1)c1ccncc1
20,159 to 160,COc1ccc(CNc2n[nH]cc2C#N)cc1OC1CCCC1
21,110 to 111,CC(C)c1nc(COCCOC(N)=O)n(Cc2ccccn2)c1Sc1cc(F)cc(F)c1
22,197 to 198,C=Cc1ccc(S(=O)(=O)Nc2ncnc(Cl)c2Cc2c(OC)cccc2OC)cc1

row,SMILES,melting point [°C]
1,CCC(Oc1cccc(C(F)F)c1Cl)C1=NCCN1 (stereo not drawn),96 to 97
2,CCOC(=O)c1ncn2c1CN=C(Cl)c1cc(OC)ccc1-2,186
3,CCCC(=O)Nc1cc(C(=O)Nc2cc(C(=O)Nc3ccc(O)cc3CCBr)n(C)c2)n(C)c1,138 to 150
4,CC12CCC(=O)C(N=[N+]=[N-])=C1CCC1C2CCC2(C)C(OC3CC3)CCC12 (stereo not drawn),104 to 106
5,O=C(O)Cc1ccccc1CBr,110
6,CC(=O)C(C#N)c1cc(Cl)cc(Cl)c1Cl (stereo not drawn),134 to 135
7,CP(C)(=O)OCc1ccccc1,41 to 45
8,CCn1c(C)c(C(=O)c2ccc([N+](=O)[O-])cc2C(=O)O)c2ccccc21,203 to 204
9,CCCCC1(N(C)C)CC=C(c2[nH]c3ccccc3c2CCNC(=O)CC(C)(C)C)CC1 (stereo not drawn),139 to 142
10,CC(C)NCCc1ccc(O)cc1,102 to 104
